Assay results published in patent US20080271368A1, “METHOD OF PROMOTING PLANT GROWTH AND IMPROVING PLANT QUALITY AND GROWTH-PROMOTING AGENT AND QUALITY-IMPROVING AGENT TO BE USED IN THE METHOD” (priority 2006, published 2008).

Test system: rice seedlings
Test: Rice yield test
Type: in vivo
Settings: for Average yield: average of nine bunches
Description: A predetermined amount of chemicals was weighed and embedded into soil together with roots of rice seedlings when the seedlings are planted in a paddy field in early May. […] Nine bunches were planted per one test field. After that, usual wet-rice culture was carried out until harvesting in early October. The rice crop was dried and weighed to determine the yield. Good unhusked rice obtained by wind selection was used as the test sample.

SMILES: O=P([O-])(O)O.O=P([O-])(O)O.[Ca+2] [Calcium dihydrogen phosphate]
- Average yield (treated amount 1 g per 1 m^2, good unhusked rice): 196 g
- Average yield (%) (treated amount 1 g per 1 m^2, untreated = 100): (90) %
- Average yield (treated amount 10 g per 1 m^2, good unhusked rice): 230 g
- Average yield (%) (treated amount 10 g per 1 m^2, untreated = 100): (105) %
